The target of assay [1] is GST-RIPK2 fusion protein (human RIPK2 amino acids 1-310) (Homo sapiens (Human), UniProt O43353). In words: RIPK2 binding competition assay (TR-FRET, Tracer 199). On the technique in general: TR-FRET usually uses a lanthanide donor and a delayed reading to cut background.
Assay [2] deals with NF-κB pathway (SEAP) in THP1-Dual cells. In words: THP-1 Dual cell SEAP assay (L18-MDP stimulated). It counts as cell-based. Conditions: Homo sapiens, THP1-Dual, read-out: NFkB THP1 IC50.
Where [3] appears, read: read-out: RIPK2 IC50, RIPK2 binding competition assay.

Like-named read-outs stand apart in the source and are kept apart here.

Sequence of GST-RIPK2 fusion protein (human RIPK2 amino acids 1-310) (O43353 1-310): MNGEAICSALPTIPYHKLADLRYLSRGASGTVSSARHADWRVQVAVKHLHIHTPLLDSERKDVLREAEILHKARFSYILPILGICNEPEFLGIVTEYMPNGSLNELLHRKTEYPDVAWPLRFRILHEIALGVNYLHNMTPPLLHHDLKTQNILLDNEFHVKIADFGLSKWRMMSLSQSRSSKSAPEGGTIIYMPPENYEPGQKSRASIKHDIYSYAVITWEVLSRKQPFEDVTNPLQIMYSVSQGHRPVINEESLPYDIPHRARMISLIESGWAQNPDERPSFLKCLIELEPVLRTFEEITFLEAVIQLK

For `CCCS(=O)(=O)Nc1cc(-c2cnc3cc(OC)c(S(=O)(=O)C(C)(C)C)cn23)cn(C)c1=O` [Example 124, N-(5-(6-(tert-butylsulfonyl)-7-methoxyimidazo[1,2-a]pyridin-3-yl)-1-methyl-2-oxo-1,2-dihydropyridin-3-yl)propane-1-sulfonamide], the half-inhibitory concentration (IC50) in assay [1] is 0.0025 to 0.02 µM; in assay [2] it was greater than 1 µM.
`COc1cc2ncc(-c3cc(NCCCO)c(=O)n(C)c3)n2cc1S(=O)(=O)C(C)(C)C` [Example 125, 5-(6-(tert-butylsulfonyl)-7-methoxyimidazo[1,2-a]pyridin-3-yl)-3-((3-hydroxypropyl)amino)-1-methylpyridin-2(1H)-one]: the IC50 in assay [1] lay in the range of 0.0025 to 0.02 µM; in assay [2] it was 0.05 to 0.25 µM.
For `COc1cc(N)cc(-c2cnc3cc(OC)c(S(=O)(=O)C(C)(C)C)cn23)n1` [Example 126, 2-(6-(tert-butylsulfonyl)-7-methoxyimidazo[1,2-a]pyridin-3-yl)-6-methoxypyridin-4-amine], the IC50 was greater than 0.02 µM in assay [1] (setting [3]) and greater than 1 µM in assay [2].
Taken in the same sequence, the figures for `COc1cc2ncc(-c3ccc(F)c(N)c3)n2cc1S(=O)(=O)C(C)(C)C` [Example 127, 5-(6-(tert-butylsulfonyl)-7-methoxyimidazo[1,2-a]pyridin-3-yl)-2-fluoroaniline] were greater than 0.02 µM and greater than 1 µM.
Turning to `COc1cc2ncc(-c3cnc(N)c(N)n3)n2cc1S(=O)(=O)C(C)(C)C` [Example 128, 5-(6-(tert-butylsulfonyl)-7-methoxyimidazo[1,2-a]pyridin-3-yl)pyrazine-2,3-diamine], the IC50 in assay [1] (setting [3]) was greater than 0.02 µM; in assay [2], greater than 1 µM.
In the case of `COc1cc2ncc(-c3cc(F)nc(OCCCO)c3)n2cc1S(=O)(=O)C(C)(C)C` [Example 129, 3-({6-fluoro-4-[7-methoxy-6-(2-methylpropane-2-sulfonyl)imidazo[1,2-a]pyridin-3-yl]pyridin-2-yl}oxy)propan-1-ol], the IC50 in assay [1] (setting [3]) is greater than 0.02 µM; in assay [2], greater than 1 µM.
On to `CCCS(=O)(=O)Nc1cc(-c2cnc3cc(OC)c(S(=O)(=O)C(C)(C)C)cn23)ccc1OC` [Example 130, N-{2-methoxy-5-[7-methoxy-6-(2-methylpropane-2-sulfonyl)imidazo[1,2-a]pyridin-3-yl]phenyl}propane-1-sulfonamide], for which the IC50 was in the range of 0.001 to 0.0025 µM in assay [1] and 0.25 to 1 µM in assay [2].
On to `CCCS(=O)(=O)Nc1cc(OC)cc(-c2cnc3cc(OC)c(S(=O)(=O)C(C)(C)C)cn23)c1` [Example 131, N-{3-methoxy-5-[7-methoxy-6-(2-methylpropane-2-sulfonyl)imidazo[1,2-a]pyridin-3-yl]phenyl}propane-1-sulfonamide], for which the IC50 was less than 0.001 µM in assay [1] (setting [3]) and less than 0.05 µM in assay [2].
Taken in the same sequence, the figures for `CCCS(=O)(=O)Nc1cc(OC)cc(-c2cnc3cc(OCC)c(S(=O)(=O)C(C)C)cn23)c1` [Example 132, N-{3-[7-ethoxy-6-(propane-2-sulfonyl)imidazo[1,2-a]pyridin-3-yl]-5-methoxyphenyl}propane-1-sulfonamide] were less than 0.001 µM and 0.05 to 0.25 µM.
For the compound `CCCS(=O)(=O)Nc1cc(-c2cnc3cc(OCC)c(S(=O)(=O)C(C)C)cn23)ccc1OC` [Example 133, N-{5-[7-ethoxy-6-(propane-2-sulfonyl)imidazo[1,2-a]pyridin-3-yl]-2-methoxyphenyl}propane-1-sulfonamide], the half-inhibitory concentration (IC50) in assay [1] fell in the range of 0.0025 to 0.02 µM; in assay [2] it was 0.25 to 1 µM.
As to `CCCS(=O)(=O)Nc1cc(-c2cnc3cc(OC)c(S(=O)(=O)C(C)(C)C)cn23)ccc1OC(F)(F)F` [Example 134, N-{5-[7-methoxy-6-(2-methylpropane-2-sulfonyl)imidazo[1,2-a]pyridin-3-yl]-2-(trifluoromethoxy)phenyl}propane-1-sulfonamide], the half-maximal inhibitory concentration (IC50) in assay [1] fell in the range of 0.0025 to 0.02 µM; in assay [2], 0.25 to 1 µM.
Take `CCCS(=O)(=O)Nc1cc(OC(F)(F)F)cc(-c2cnc3cc(OC)c(S(=O)(=O)C(C)(C)C)cn23)c1` [Example 135, N-{3-[7-methoxy-6-(2-methylpropane-2-sulfonyl)imidazo[1,2-a]pyridin-3-yl]-5-(trifluoromethoxy)phenyl}propane-1-sulfonamide]: the results for the IC50 in assay [1] and in assay [2] were 0.0025 to 0.02 µM and greater than 1 µM, respectively.
Regarding `CCCS(=O)(=O)Nc1cc(-c2cnc3cc(OC)c(S(=O)(=O)C(C)(C)C)cn23)cc(OC)c1C` [Example 136, N-(5-(6-(tert-Butylsulfonyl)-7-methoxyimidazo[1,2-a]pyridin-3-yl)-3-methoxy-2-methylphenyl)propane-1-sulfonamide], the IC50 is 0.0025 to 0.02 µM in assay [1] and greater than 1 µM in assay [2].
As for `CCCS(=O)(=O)Nc1cc(-c2cnc3cc(OC)c(C(=O)N(C)C)cn23)cc(OC)c1OC` [Example 137, 3-[3,4-dimethoxy-5-(propane-1-sulfonamido)phenyl]-7-methoxy-N,N-dimethylimidazo[1,2-a]pyridine-6-carboxamide], the concentration for half-maximal inhibition (IC50) in assay [1] was 0.0025 to 0.02 µM; in assay [2], 0.25 to 1 µM.
With `CCCS(=O)(=O)Nc1cc(-c2cnc3cc(OC)c(S(=O)(=O)C(C)(C)C)cn23)cc(OC(F)(F)F)c1F` [Example 138, N-{2-fluoro-5-[7-methoxy-6-(2-methylpropane-2-sulfonyl)imidazo[1,2-a]pyridin-3-yl]-3-(trifluoromethoxy)phenyl}propane-1-sulfonamide], the half-maximal inhibitory concentration (IC50) in assay [1] (setting [3]) was greater than 0.02 µM; in assay [2], greater than 1 µM.
Turning to `CCCS(=O)(=O)Nc1cc(-c2cnn3ccc(S(=O)(=O)C(C)(C)C)cc23)cc(OC)c1OC` [Example 139, N-(5-(5-(tert-butylsulfonyl)pyrazolo [1,5-a]pyridin-3-yl)-2,3-dimethoxyphenyl) propane-1-sulfonamide], the figures for the half-inhibitory concentration (IC50) in assay [1] and in assay [2] were 0.001 to 0.0025 µM and 0.05 to 0.25 µM, respectively.
For `CCCS(=O)(=O)Nc1cc(-c2cnn3cc(OC)c(S(=O)(=O)C(C)(C)C)cc23)cc(OC)c1OC` [Example 140, N-(5-(5-(tert-butylsulfonyl)-6-methoxypyrazolo[1,5-a]pyridin-3-yl)-2,3-dimethoxyphenyl) propane-1-sulfonamide], the IC50 in assay [1] (setting [3]) is less than 0.001 µM; in assay [2], less than 0.05 µM.
In the case of `COc1cn2ncc(-c3cc(NS(C)(=O)=O)c(OC)c(OC)c3)c2cc1S(=O)(=O)C(C)(C)C` [Example 141, N-(5-(5-(tert-butylsulfonyl)-6-methoxypyrazolo[1,5-a]pyridin-3-yl)-2,3-dimethoxyphenyl) methanesulfonamide], the IC50 fell in the range of 0.001 to 0.0025 µM in assay [1] and 0.05 to 0.25 µM in assay [2].
In the case of `COc1cc2ncc(-c3ccc(N)c(OC(F)F)c3)n2cc1S(=O)(=O)C(C)(C)C` [Example 142, 4-(6-(tert-butylsulfonyl)-7-methoxyimidazo[1,2-a]pyridin-3-yl)-2-(difluoromethoxy)aniline], the 50% inhibitory concentration (IC50) in assay [1] was in the range of 0.0025 to 0.02 µM; in assay [2] it was 0.25 to 1 µM.
With `CCc1ccc(-c2cnc3cc(OC)c(S(=O)(=O)C(C)(C)C)cn23)cc1NS(C)(=O)=O` [Example 143, N-(5-(6-(tert-butylsulfonyl)-7-methoxyimidazo[1,2-a]pyridin-3-yl)-2-ethylphenyl) methanesulfonamide], the 50% inhibitory concentration (IC50) in assay [1] is 0.0025 to 0.02 µM; in assay [2] it was greater than 1 µM.
In the case of `CCCS(=O)(=O)Nc1cc(-c2cnc3ccccn23)cc(F)c1OC` [Example 144, N-(3-fluoro-5-(imidazo[1,2-a]pyridin-3-yl)-2-methoxyphenyl) propane-1-sulfonamide], the IC50 in assay [1] (setting [3]) was greater than 0.02 µM; in assay [2], greater than 1 µM.
For the compound `CCCS(=O)(=O)Nc1cc(-c2cnc3cc(OC)c(S(=O)(=O)C(C)(C)C)cn23)cc(OC(F)F)n1` [Example 145, N-(4-(6-(tert-butylsulfonyl)-7-methoxyimidazo[1,2-a]pyridin-3-yl)-6-(difluoromethoxy)pyridin-2-yl)propane-1-sulfonamide], the IC50 lay within 0.001 to 0.0025 µM in assay [1] and 0.25 to 1 µM in assay [2].
On to `CCCS(=O)(=O)Nc1cc(-c2cnc3cc(OC)c(C(C)(C)O)cn23)cc(F)c1OC` [Example 146, N-(3-fluoro-5-(6-(2-hydroxypropan-2-yl)-7-methoxyimidazo[1,2-a]pyridin-3-yl)-2-methoxyphenyl)propane-1-sulfonamide], for which the IC50 in assay [1] was 0.001 to 0.0025 µM; in assay [2], 0.05 to 0.25 µM.
Turning to `COc1cc2ncc(-c3cc(F)c(OCc4ccccc4)c(NS(C)(=O)=O)c3)n2cc1S(=O)(=O)C(C)(C)C` [Example 147, N-(2-(benzyloxy)-5-(6-(tert-butylsulfonyl)-7-methoxyimidazo[1,2-a]pyridin-3-yl)-3-fluorophenyl) methanesulfonamide], the concentration for half-maximal inhibition (IC50) in assay [1] is greater than 0.02 µM; in assay [2], greater than 1 µM.
`COc1cc2ncc(-c3ccc(NS(C)(=O)=O)nc3)n2cc1S(=O)(=O)C(C)(C)C` [Example 148, N-(5-(6-(tert-butylsulfonyl)-7-methoxyimidazo[1,2-a]pyridin-3-yl)pyridin-2-yl)methanesulfonamide]: the IC50 in assay [1] (setting [3]) is greater than 0.02 µM; in assay [2], greater than 1 µM.
Regarding `COc1cc2ncc(-c3ccc(O)nc3)n2cc1S(=O)(=O)C(C)(C)C` [Example 150, 5-(6-(tert-butylsulfonyl)-7-methoxyimidazo[1,2-a]pyridin-3-yl)pyridin-2-ol], the figures for the half-inhibitory concentration (IC50) in assay [1] (setting [3]) and in assay [2] were greater than 0.02 µM and greater than 1 µM, respectively.
Taken in the same sequence, the figures for `COc1cc2ncc(-c3cccc(S(C)(=O)=O)c3)n2cc1S(=O)(=O)C(C)(C)C` [Example 151, 6-(tert-butylsulfonyl)-7-methoxy-3-(3-(methylsulfonyl)phenyl) imidazo[1,2-a]pyridine] were greater than 0.02 µM and greater than 1 µM.
On to `COc1cc2ncc(-c3ccc(S(N)(=O)=O)cc3)n2cc1S(=O)(=O)C(C)(C)C` [Example 152, 4-(6-(tert-butylsulfonyl)-7-methoxyimidazo[1,2-a]pyridin-3-yl)benzenesulfonamide], for which the values for the IC50 in assay [1] (setting [3]) and in assay [2] were greater than 0.02 µM and greater than 1 µM, respectively.
On the same counts, the results for `COc1cc2ncc(-c3cccc(S(N)(=O)=O)c3)n2cc1S(=O)(=O)C(C)(C)C` [Example 153, 3-(6-(tert-butylsulfonyl)-7-methoxyimidazo[1,2-a]pyridin-3-yl)benzenesulfonamide] are greater than 0.02 µM and greater than 1 µM.

As a reminder, the IC50 is the concentration needed to halve the response being measured.

The record behind these values is US20250346593A1, “IMIDAZO(1,2-1)PYRIDINE DERIVATIVES AS RIPK2 INHIBITORS” (Interline Therapeutics, Inc., priority 2022, published 2025).
